Measurements published in patent US20190077809A1, “Spirocyclic Derivatives” (BASF SE, priority 2016, published 2019).

Key:
Assay type in all cases: in vivo
Plutella xylostella = assay: Diamond back moth (Plutella xylostella) cabbage leaf-dip test; settings: 3rd instar larvae on dipped cabbage leaves, 72 hours after treatment, read-out: mortality in comparison with untreated controls
Experimental: The active compound was dissolved at the desired concentration in a mixture of 1:1 (vol:vol) distilled water:aceteone. Surfactant (Kinetic HV) was added at a rate of 0.01% (vol/vol).The test solution was prepared at the day of use.
Leaves of cabbage were dipped in test solution and air-dried. Treated leaves were placed in petri dishes lined with moist filter paper and inoculated with ten 3rd instar larvae. Mortality was recorded 72 hours after treatment. Feeding damages were also recorded using a scale of 0-100%.

Myzus persicae = assay: Green peach aphid (Myzus persicae) systemic test, artificial diet in microtiter plates; settings: 72 h, adult aphids on treated artificial diet, 3 days, read-out: mortality in comparison with untreated controls
Excerpt: For evaluating control of green peach aphid (Myzus persicae) through systemic means the test unit consisted of 96-well-microtiter plates containing liquid artificial diet under an artificial membrane.
The compounds were formulated using a solution containing 75% v/v water and 25% v/v DMSO. Different concentrations of formulated compounds were pipetted into the aphid diet, using a custom built pipetter, at two replications.
After application, 5-8 adult aphids were placed on the artificial membrane inside the microtiter plate wells. The aphids were then allowed to suck on the treated aphid diet and incubated at about 23±1 ° C. and about 50±5% relative humidity for 3 days. Aphid mortality and fecundity was then visually assessed.

Megoura viciae = assay: Vetch aphid (Megoura viciae) broad bean leaf disk test; settings: foliar, 120 h, adult aphids on sprayed broad bean leaf disks, 5 days, read-out: mortality in comparison with untreated controls
Experimental: For evaluating control of vetch aphid (Megoura viciae) through contact or systemic means the test unit consisted of 24-well-microtiter plates containing broad bean leaf disks.
The compounds were formulated using a solution containing 75% v/v water and 25% v/v DMSO. Different concentrations of formulated compounds were sprayed onto the leaf disks at 2.5 μl, using a custom built micro atomizer, at two replications.
After application, the leaf disks were air-dried and 5- 8 adult aphids placed on the leaf disks inside the microtiter plate wells. The aphids were then allowed to suck on the treated leaf disks and incubated at about 23±1° C. and about 50±5% relative humidity for 5 days. Aphid mortality and fecundity was then visually assessed.

Heliothis virescens = assay: Tobacco budworm (Heliothis virescens) insect diet/egg microtiter test; settings: 120 h, egg and larval mortality on sprayed insect diet, 5 days, read-out: mortality in comparison with untreated controls
Experimental: For evaluating control of tobacco budworm (Heliothis virescens) the test unit consisted of 96-well-microtiter plates containing an insect diet and 15-25 H. virescens eggs.
The compounds were formulated using a solution containing 75% v/v water and 25% v/v DMSO. Different concentrations of formulated compounds were sprayed onto the insect diet at 10 μl, using a custom built micro atomizer, at two replications.
After application, microtiter plates were incubated at about 28+1° C. and about 80+5% relative humidity for 5 days. Egg and larval mortality was then visually assessed.

Anthonomus grandis = assay: Boll weevil (Anthonomus grandis) insect diet/egg microtiter test; settings: 120 h, egg and larval mortality on sprayed insect diet, 5 days, read-out: mortality in comparison with untreated controls
Experimental: For evaluating control of boll weevil (Anthonomus grandis) the test unit consisted of 96-well-microtiter plates containing an insect diet and 5-10 A. grandis eggs.
(§1) The compounds were formulated using a solution containing 75% v/v water and 25% v/v DMSO. Different concentrations of formulated compounds were sprayed onto the insect diet at 5 μl, using a custom built micro atomizer, at two replications.
After application, microtiter plates were incubated at about 25±1° C. and about 75±5% relative humidity for 5 days. Egg and larval mortality was then visually assessed.

Ceratitis capitata = assay: Mediterranean fruitfly (Ceratitis capitata) insect diet/egg microtiter test; settings: 120 h, egg and larval mortality on sprayed insect diet, 5 days, read-out: mortality in comparison with untreated controls
Experimental: For evaluating control of Mediterranean fruitfly (Ceratitis capitata) the test unit consisted of microtiter plates containing an insect diet and 50-80 C. capitata eggs.
as §1
After application, microtiter plates were incubated at about 28±1° C. and about 80±5% relative humidity for 5 days. Egg and larval mortality was then visually assessed.

Dichromothrips corbetti = assay: Orchid thrips (dichromothrips corbetti) floral-immersion test; settings: adult thrips on dipped orchid petals, 72 hours after treatment, read-out: mortality in comparison with untreated controls
Experimental: Dichromothrips corbetti adults used for bioassay were obtained from a colony maintained continuously under laboratory conditions. For testing purposes, the test compound is diluted in a 1:1 mixture of acetone:water (vol:vol), plus Kinetic HV ata rate of 0.01% v/v.
Thrips potency of each compound was evaluated by using a floral-immersion technique. All petals of individual, intact orchid flowers were dipped into treatment solution and allowed to dry in Petri dishes. Treated petals were placed into individual re-sealable plastic along with about 20 adult thrips. All test arenas were held under continuous light and a temperature of about 28° C. for duration of the assay. After 3 days, the numbers of live thrips were counted on each petal. The percent mortality was recorded 72 hours after treatment.

Nephotettix virescens = assay: Rice green leafhopper (Nephotettix virescens) sprayed rice seedling test; settings: adults on sprayed rice seedlings, after 72 hours, read-out: mortality in comparison with untreated controls
Experimental: Rice seedlings were cleaned and washed 24 hours before spraying. The active compounds were formulated in 1:1 acetone:water (vol:vol), and 0.01% vol/vol surfactant (Kinetic HV) was added. Potted rice seedlings were sprayed with 5-6 ml test solution, air dried, covered with Mylar cages cages and inoculated with 10 adults. Treated rice plants were kept at about 28-29° C. and relative humidity of about 50-60%. Percent mortality was recorded after 72 hours.

Tetranychus kanzawai = assay: Red spider mite (Tetranychus kanzawai) sprayed cowpea bean test; settings: mites on sprayed cowpea beans, 72 hours after treatment, read-out: mortality in comparison with untreated controls
Experimental: The active compound was dissolved at the desired concentration in a mixture of 1:1 (vol:vol) distilled water:acetone. Add surfactant (Kinetic HV) was added at a rate of 0.01% (vol/vol).The test solution was prepared at the day of use.
Potted cowpea beans of 4-5 days of age were cleaned with tap water and sprayed with 1-2 ml of the test solution using air driven hand atomizer. The treated plants were allowed to air dry and afterwards inoculated with 30 or more mites by clipping a cassava leaf section from rearing population. Treated plants were placed inside a holding room at about 25-27° C. and about 50-60% relative humidity. Percent mortality was assessed 72 hours after treatment.

Spodoptera eridania = assay: Southern armyworm (Spodoptera eridania) sprayed lima bean foliage test; settings: foliar, 96 h, larvae on sprayed lima bean plants, 4 days after treatment, read-out: mortality in comparison with untreated controls
Experimental: The active compounds were formulated in cyclohexanone as a 10,000 ppm solution supplied in tubes. The tubes were inserted into an automated electrostatic sprayer equipped with an atomizing nozzle and they served as stock solutions for which lower dilutions were made in 50% acetone:50% water (v/v). A nonionic surfactant (Kinetic®) was included in the solution at a volume of 0.01% (v/v).
Lima bean plants (variety Sieva) were grown 2 plants to a pot and selected for treatment at the 1st true leaf stage. Test solutions were sprayed onto the foliage by an automated electrostatic plant sprayer equipped with an atomizing spray nozzle. The plants were dried in the sprayer fume hood and then removed from the sprayer. Each pot was placed into perforated plastic bags with a zip closure. About 10 to 11 armyworm larvae were placed into the bag and the bags zipped closed. Test plants were maintained in a growth room at about 25° C. and about 20-40% relative humidity for 4 days, avoiding direct exposure to fluorescent light (24 hour photoperiod) to prevent trapping of heat inside the bags. Mortality and reduced feeding were assessed 4 days after treatment, compared to untreated control plants.

Nezara viridula = assay: Green soldier stink bug (Nezara viridula) sprayed soybean pod test; settings: 120 h, late 3rd instar on sprayed soybean pods, after 5 days, read-out: mortality in comparison with untreated controls
Experimental: The active compound was dissolved at the desired concentration in a mixture of 1:1 (vol:vol) distilled water:acetone. Surfactant (Kinetic HV) was added at a rate of 0.01% (vol/vol). The test solution was prepared at the day of use.Soybean pods were placed in glass Petri dishes lined with moist filter paper and inoculated with ten late 3rd instar N. vindula. Using a hand atomizer, approximately 2 ml solution is sprayed into each Petri dish. Assay arenas were kept at about 25° C. Percent mortality was recorded after 5 days.

Halyomorpha halys = assay: Brown marmorated stink bug (Halyomorpha halys) sprayed peanut/soybean seed test; settings: 120 h, adult stage, sprayed cups with peanuts and soybean seeds, after 5 days, read-out: mortality in comparison with untreated controls
Experimental: The active compound was dissolved at the desired concentration in a mixture of 1:1 (vol:vol) distilled water:acetone. Surfactant (Kinetic HV) was added at a rate of 0.01% (vol/vol). The test solution was prepared at the day of use.
Row peanuts and soybean seeds were placed into microwavable plastic cups and inoculated with five adult stage H. halys. Using a hand atomizer, approximately 1 ml solution is sprayed into each cup, insects and food present. A water source was provided (cotton wick with water). Each treatment is replicated 4-fold. Assay arenas are kept at about 25° C. Percent mortality was recorded after 5 days.

CCC(=O)N1CC2(C1)OCc1cc(C3=CCC(c4cc(Cl)c(F)c(Cl)c4)(C(F)(F)F)C3)ccc12 (centres unmarked) [Compound I-1-1, 1-[6-[4-(3,5-dichloro-4-fluoro-phenyl)-4-(trifluoromethyl)cyclopenten-1-yl]spiro[1H-isobenzofuran-3,3′-azetidine]-1′-yl]propan-1-one]
≥ 75%: mortality at 300 ppm (Plutella xylostella) | mortality at 2500 ppm (Myzus persicae) | mortality at 2500 ppm (Megoura viciae) | mortality at 2500 ppm (Heliothis virescens) | mortality at 2500 ppm (Anthonomus grandis) | mortality at 2500 ppm (Ceratitis capitata) | mortality at 300 ppm (Dichromothrips corbetti) | mortality at 300 ppm (Nephotettix virescens) | mortality at 300 ppm (Tetranychus kanzawai) | mortality at 10 ppm (Spodoptera eridania) | mortality at 300 ppm (Nezara viridula) | mortality at 100 ppm (Halyomorpha halys)

CC(=O)N1CC2(C1)OCc1cc(C3=CSC(c4cc(Cl)c(F)c(Cl)c4)(C(F)(F)F)C3)ccc12 (centres unmarked) [Compound I-2-2, 1-[6-[2-(3,5-dichloro-4-fluoro-phenyl)-2-(trifluoromethyl)-3H-thiophen-4-yl]spiro[1H-isobenzofuran-3,3′-azetidine]-1′-yl]ethanone]
≥ 75%: mortality at 300 ppm (Plutella xylostella) | mortality at 2500 ppm (Myzus persicae) | mortality at 2500 ppm (Megoura viciae) | mortality at 2500 ppm (Heliothis virescens) | mortality at 2500 ppm (Anthonomus grandis) | mortality at 300 ppm (Dichromothrips corbetti) | mortality at 300 ppm (Nephotettix virescens) | mortality at 300 ppm (Tetranychus kanzawai) | mortality at 10 ppm (Spodoptera eridania) | mortality at 300 ppm (Nezara viridula) | mortality at 100 ppm (Halyomorpha halys)
